Data: ChEMBL document CHEMBL4342483, “Codrug Approach for the Potential Treatment of EML4-ALK Positive Lung Cancer” (ACS Med Chem Lett, 2020)
The source made the active and inactive calls. The rule behind the calls is not given here.

Legend:
A549 [1] = test: Cytotoxicity against ALK-negative human A549 cells assessed as cell growth inhibition by Chou-Talalay method; assay type: functional
[2] = target: ALK tyrosine kinase receptor (Homo sapiens) (UniProt Q9UM73); conditions: 500 nM
Description: Inhibition of ALK-mediated STAT3 phosphorylation in EML4-ALK-positive human CCL185IG cells at 500 nM measured after 24 hrs by Western blot analysis

[3] = target: ALK tyrosine kinase receptor (Homo sapiens) (UniProt Q9UM73); conditions: 500 nM; remark: listed apart in the source
Description: Inhibition of ALK-mediated STAT3 phosphorylation in EML4-ALK-positive human CCL185IG cells at 500 nM measured after 24 hrs in presence of pictilisib by Western blot analysis

A549 [4] = test: Cytotoxicity against ALK-negative human A549 cells harboring wild type PI3KCA and CDKN2A and KRAS mutations assessed as cell growth inhibition measured after 72 hrs by MTT assay; assay type: functional; conditions: A549, 72 h
[5] = Cytotoxicity against EML4-ALK-positive human CCL185IG cells assessed as cell growth inhibition by Chou-Talalay method; assay type: functional
[6] = Cytotoxicity against EML4-ALK-positive human CCL185IG cells harboring wild type PI3KCA and CDKN2A and KRAS mutations assessed as cell growth inhibition measured after 72 hrs by MTT assay; assay type: functional
[7] = Half life in phosphate buffer and DMSO supplemented with 4% bovine serum albumin at pH 6.5 by HPLC analysis; assay type: physicochemical; conditions: phosphate buffer and DMSO with 4% bovine serum albumin
[8] = Half life in rat plasma; assay type: ADME, cell-free
[9] = Drug degradation in rat plasma assessed as compound hydrolysis with first order rate constant; assay type: ADME, cell-free
[10] = Hydrolytic stability in phosphate buffer and DMSO supplemented with 4% bovine serum albumin assessed as rate constant at pH 6.5 by HPLC analysis
[11] = Half life in phosphate buffer and DMSO supplemented with 4% bovine serum albumin at pH 7.4 by HPLC analysis; assay type: physicochemical; conditions: phosphate buffer and DMSO with 4% bovine serum albumin
[12] = Hydrolytic stability in phosphate buffer and DMSO supplemented with 4% bovine serum albumin assessed as rate constant at pH 7.4 by HPLC analysis
[13] = Drug degradation in rat plasma assessed as compound hydrolysis with zero order rate constant; assay type: ADME, cell-free
A549 [14] = test: Synergistic growth inhibition of ALK-negative human A549 cells assessed as combination index at compound:ceritinib concentration ratio of 1:1 and fractional effect of 0.76 in presence of ceritinib by Chou-Talalay method; assay type: functional
A549 [15] = test: Synergistic growth inhibition of ALK-negative human A549 cells assessed as combination index at compound:ceritinib concentration ratio of 1:1 and fractional effect of 0.25 in presence of ceritinib by Chou-Talalay method; assay type: functional
[16] = Synergistic growth inhibition of EML4-ALK-positive human CCL185IG cells assessed as combination index at compound:ceritinib concentration ratio of 1:1 and fractional effect of 0.76 in presence of ceritinib by Chou-Talalay method; assay type: functional
[17] = Synergistic growth inhibition of EML4-ALK-positive human CCL185IG cells assessed as combination index at compound:ceritinib concentration ratio of 1:1 and fractional effect of 0.5 in presence of ceritinib by Chou-Talalay method; assay type: functional
[18] = Synergistic growth inhibition of EML4-ALK-positive human CCL185IG cells assessed as combination index at compound:ceritinib concentration ratio of 1:1 and fractional effect of 0.25 in presence of ceritinib by Chou-Talalay method; assay type: functional
A549 [19] = test: Synergistic growth inhibition of ALK-negative human A549 cells assessed as combination index at compound:ceritinib concentration ratio of 1:1 and fractional effect of 0.96 in presence of ceritinib by Chou-Talalay method; assay type: functional
[20] = Synergistic growth inhibition of EML4-ALK-positive human CCL185IG cells assessed as combination index at compound:ceritinib concentration ratio of 1:1 and fractional effect of 0.96 in presence of ceritinib by Chou-Talalay method; assay type: functional
A549 [21] = test: Synergistic growth inhibition of ALK-negative human A549 cells assessed as combination index at compound:ceritinib concentration ratio of 1:1 and fractional effect of 0.5 in presence of ceritinib by Chou-Talalay method; assay type: functional
[22] = Prodrug conversion in phosphate buffer at pH 6.4 and d6-DMSO (1:1) assessed as rate constant for release of active compound mimetics by kinetic time-course NMR method; assay type: ADME
[23] = Half life in phosphate buffer at pH 6.4 and d6-DMSO (1:1) by kinetic time-course NMR method; assay type: physicochemical; conditions: phosphate buffer and d6-DMSO (1:1)
[24] = Half life in phosphate buffer at pH 7.4 and d6-DMSO (1:1) by kinetic time-course NMR method; assay type: physicochemical; conditions: phosphate buffer and d6-DMSO (1:1)
[25] = Half life in phosphate buffer at pH 6.8 and d6-DMSO (1:1) by kinetic time-course NMR method; assay type: physicochemical; conditions: phosphate buffer and d6-DMSO (1:1)
[26] = Prodrug conversion in phosphate buffer at pH 7.4 and d6-DMSO (1:1) assessed as rate constant for release of active compound mimetics by kinetic time-course NMR method; assay type: ADME
[27] = Prodrug conversion in phosphate buffer at pH 6.8 and d6-DMSO (1:1) assessed as rate constant for release of active compound mimetics by kinetic time-course NMR method; assay type: ADME

Chain of ALK tyrosine kinase receptor (Homo sapiens) (Q9UM73 19-1620 limits assumed): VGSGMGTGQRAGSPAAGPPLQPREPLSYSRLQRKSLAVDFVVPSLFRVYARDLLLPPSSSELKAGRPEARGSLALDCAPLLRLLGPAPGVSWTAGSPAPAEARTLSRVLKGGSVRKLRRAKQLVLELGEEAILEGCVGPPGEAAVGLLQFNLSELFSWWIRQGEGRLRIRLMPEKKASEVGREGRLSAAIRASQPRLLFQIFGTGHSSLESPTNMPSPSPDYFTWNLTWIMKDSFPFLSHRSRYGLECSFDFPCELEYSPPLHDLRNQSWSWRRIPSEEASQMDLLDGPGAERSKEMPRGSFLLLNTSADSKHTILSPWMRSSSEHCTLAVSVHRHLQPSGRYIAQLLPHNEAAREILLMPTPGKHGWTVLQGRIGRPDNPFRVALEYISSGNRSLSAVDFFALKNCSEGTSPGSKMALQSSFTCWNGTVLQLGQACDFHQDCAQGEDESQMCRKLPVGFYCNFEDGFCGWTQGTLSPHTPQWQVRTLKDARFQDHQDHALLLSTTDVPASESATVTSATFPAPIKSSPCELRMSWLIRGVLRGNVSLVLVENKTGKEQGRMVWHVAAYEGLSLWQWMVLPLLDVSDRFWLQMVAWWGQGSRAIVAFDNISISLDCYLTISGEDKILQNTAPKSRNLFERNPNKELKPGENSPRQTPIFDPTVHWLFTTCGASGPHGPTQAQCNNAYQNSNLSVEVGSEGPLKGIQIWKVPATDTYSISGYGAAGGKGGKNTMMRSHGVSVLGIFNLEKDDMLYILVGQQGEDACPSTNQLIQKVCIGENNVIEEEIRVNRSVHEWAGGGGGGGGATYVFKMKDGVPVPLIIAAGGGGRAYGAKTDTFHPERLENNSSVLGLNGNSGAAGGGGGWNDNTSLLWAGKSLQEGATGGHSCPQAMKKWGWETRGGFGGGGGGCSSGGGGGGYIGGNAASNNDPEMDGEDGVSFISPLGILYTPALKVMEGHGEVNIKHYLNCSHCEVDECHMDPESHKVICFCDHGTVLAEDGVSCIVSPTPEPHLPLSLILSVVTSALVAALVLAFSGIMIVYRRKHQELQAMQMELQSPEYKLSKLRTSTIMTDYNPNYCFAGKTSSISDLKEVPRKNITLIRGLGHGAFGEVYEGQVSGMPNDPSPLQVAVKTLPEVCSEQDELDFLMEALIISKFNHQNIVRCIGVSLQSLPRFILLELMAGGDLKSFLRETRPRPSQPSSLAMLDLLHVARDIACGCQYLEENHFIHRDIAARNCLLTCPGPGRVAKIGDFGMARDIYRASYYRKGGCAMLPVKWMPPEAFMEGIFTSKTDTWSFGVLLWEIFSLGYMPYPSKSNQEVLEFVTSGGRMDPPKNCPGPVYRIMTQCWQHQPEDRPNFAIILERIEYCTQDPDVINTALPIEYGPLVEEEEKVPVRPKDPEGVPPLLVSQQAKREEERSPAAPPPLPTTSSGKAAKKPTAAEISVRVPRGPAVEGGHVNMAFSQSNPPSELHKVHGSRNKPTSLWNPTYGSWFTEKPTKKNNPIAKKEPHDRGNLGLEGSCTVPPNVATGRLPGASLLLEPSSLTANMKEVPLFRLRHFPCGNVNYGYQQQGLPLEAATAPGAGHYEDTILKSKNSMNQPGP

Compound	D50 (A549 [1])	GI50 (A549 [4])	D50 [5]	GI50 [6]	half-life [7]	half-life [8]	K [9]	K [10]	half-life [11]	K [12]	other results
Cc1cc(Nc2ncc(Cl)c(Nc3ccccc3S(=O)(=O)C(C)C)n2)c(OC(C)C)cc1C1CCNCC1 [CERITINIB]	0.85 µM	845 nM	0.57 µM	565 nM							inhibition [2]: Active; inhibition [3]: Active
Cc1cc(Nc2ncc(Cl)c(Nc3ccccc3S(=O)(=O)C(C)C)n2)c(OC(C)C)cc1C1CCN(C(=O)OC(C)OC(=O)[C@@H](N)CC(=O)n2ncc3c(-c4nc(N5CCOCC5)c5sc(CN6CCN(S(C)(=O)=O)CC6)cc5n4)cccc32)CC1 (some centres not stated)					34.7 h	0.633 h	0.018 min⁻¹	0.02 h⁻¹	19.3 h	0.036 h⁻¹	
Cc1cc(Nc2ncc(Cl)c(Nc3ccccc3S(=O)(=O)C(C)C)n2)c(OC(C)C)cc1C1CCN(C(=O)OC(C)OC(=O)C[C@H](N)C(=O)n2ncc3c(-c4nc(N5CCOCC5)c5sc(CN6CCN(S(C)(=O)=O)CC6)cc5n4)cccc32)CC1 (some centres not stated)					19.3 h	0.967 h		0.036 h⁻¹	7.4 h	0.094 h⁻¹	K [13]: 0.069 µM/s
CS(=O)(=O)N1CCN(Cc2cc3nc(-c4cccc5[nH]ncc45)nc(N4CCOCC4)c3s2)CC1 [PICTILISIB]	1.22 µM	1220 nM	1.12 µM	1180 nM							CI (A549 [14]): 0.55; CI (A549 [15]): 0.95; CI [16]: 0.3; CI [17]: 0.37; CI [18]: 0.52; CI (A549 [19]): 0.35; CI [20]: 0.24; CI (A549 [21]): 0.72
Cc1cc(Nc2ncc(Cl)c(Nc3ccccc3S(=O)(=O)C(C)C)n2)c(OC(C)C)cc1C1CCN(C(=O)OC(C)OC(=O)CC(N)CC(=O)n2ncc3c(-c4nc(N5CCOCC5)c5sc(CN6CCN(S(C)(=O)=O)CC6)cc5n4)cccc32)CC1 (configuration not stated)					12 h	1.15 h	0.01 min⁻¹	0.058 h⁻¹	7.6 h	0.091 h⁻¹	
CC(OC(=O)C[C@H](N)C(=O)n1ncc2cc(Br)ccc21)OC(=O)N1CCC(c2ccccc2)CC1 (some centres not stated)											K [22]: 0.22 h⁻¹; half-life [23]: 4.64 h; half-life [24]: 0.39 h; half-life [25]: 0.7 h; K [26]: 1.37 h⁻¹; K [27]: 0.84 h⁻¹
